# Target: human URAT1 (Homo sapiens (Human), UniProt Q96S37)
# Assay: Inhibitory activity of uric acid transport with human URAT1 expressing cells
# Type: cell-based
# Details: 10 μM test compound; URAT1-expressing HEK293 cells; 14C uric acid 50 μM, 2 minutes at 37° C.; read-out: Percent inhibition of uric acid uptake
# Protocol: Inhibitory Activity of Uric Acid Transport with Human URAT1 Expressing Cells
# (1) Cells Used in the Test
# URAT1-expressing HEK293 cells (HEK293 cells transfected with vector containing human URAT1 cDNA) and control cells (HEK293 cells transfected with vector alone) were used.
# URAT1-expressing cells and control cells were seeded in collagen I-coated 24-well plates (manufactured by Becton, Dickinson and Company) at 1 to 4×10^5 cells/well, and cultured in CO2 incubator (37° C., CO2: 5%) for 1 to 3 days, and then the following measurement of uric acid transport was conducted. […]
# After the medium was removed from the plates in which cells were seeded, and 1 mL of HBSS was added to the cells. […] The radioactivity was measured by means of a liquid scintillation counter. […]
# Protein concentration in the cell lysates was determined by BCA Protein Assay Kit (manufactured by Pierce) and then amount of protein (mg/well) was calculated. […]
# Uric acid uptake activity in each well was calculated by the following formula. Uric acid uptake activity (p mol/mg protein)=radioactivity (dpm/well)/[amount of protein (mg/well)×concentration of radioactivity in HBSS containing ^14C uric acid (dpm/p mol)]
# Percent inhibition was calculated according to the following formula. […]
# Chain of human URAT1 (Q96S37 whole entry): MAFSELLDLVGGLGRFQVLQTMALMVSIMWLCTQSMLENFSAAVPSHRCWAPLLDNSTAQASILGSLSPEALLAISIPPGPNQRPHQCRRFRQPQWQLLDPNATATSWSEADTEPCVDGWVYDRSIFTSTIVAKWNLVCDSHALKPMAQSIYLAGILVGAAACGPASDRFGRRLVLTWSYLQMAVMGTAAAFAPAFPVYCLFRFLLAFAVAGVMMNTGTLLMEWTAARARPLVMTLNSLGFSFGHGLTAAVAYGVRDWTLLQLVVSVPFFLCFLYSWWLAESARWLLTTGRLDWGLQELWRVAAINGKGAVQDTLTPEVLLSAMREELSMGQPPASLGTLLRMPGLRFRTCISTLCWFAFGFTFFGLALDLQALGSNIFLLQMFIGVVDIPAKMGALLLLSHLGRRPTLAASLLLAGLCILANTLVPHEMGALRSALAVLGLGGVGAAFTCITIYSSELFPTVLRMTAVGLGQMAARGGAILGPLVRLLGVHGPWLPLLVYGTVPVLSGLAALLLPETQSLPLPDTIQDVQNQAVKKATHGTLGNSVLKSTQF
row,inhibition at 10 µM [%],Compound
1,≥ 50,N#Cc1cn(-c2ccc(C(=O)O)c(O)c2)c2sccc12 [Example 9]

# Target: Xanthine oxidase (from bovine milk, Sigma) (Bos taurus (Bovine), UniProt P80457)
# Sequence (P80457 whole entry): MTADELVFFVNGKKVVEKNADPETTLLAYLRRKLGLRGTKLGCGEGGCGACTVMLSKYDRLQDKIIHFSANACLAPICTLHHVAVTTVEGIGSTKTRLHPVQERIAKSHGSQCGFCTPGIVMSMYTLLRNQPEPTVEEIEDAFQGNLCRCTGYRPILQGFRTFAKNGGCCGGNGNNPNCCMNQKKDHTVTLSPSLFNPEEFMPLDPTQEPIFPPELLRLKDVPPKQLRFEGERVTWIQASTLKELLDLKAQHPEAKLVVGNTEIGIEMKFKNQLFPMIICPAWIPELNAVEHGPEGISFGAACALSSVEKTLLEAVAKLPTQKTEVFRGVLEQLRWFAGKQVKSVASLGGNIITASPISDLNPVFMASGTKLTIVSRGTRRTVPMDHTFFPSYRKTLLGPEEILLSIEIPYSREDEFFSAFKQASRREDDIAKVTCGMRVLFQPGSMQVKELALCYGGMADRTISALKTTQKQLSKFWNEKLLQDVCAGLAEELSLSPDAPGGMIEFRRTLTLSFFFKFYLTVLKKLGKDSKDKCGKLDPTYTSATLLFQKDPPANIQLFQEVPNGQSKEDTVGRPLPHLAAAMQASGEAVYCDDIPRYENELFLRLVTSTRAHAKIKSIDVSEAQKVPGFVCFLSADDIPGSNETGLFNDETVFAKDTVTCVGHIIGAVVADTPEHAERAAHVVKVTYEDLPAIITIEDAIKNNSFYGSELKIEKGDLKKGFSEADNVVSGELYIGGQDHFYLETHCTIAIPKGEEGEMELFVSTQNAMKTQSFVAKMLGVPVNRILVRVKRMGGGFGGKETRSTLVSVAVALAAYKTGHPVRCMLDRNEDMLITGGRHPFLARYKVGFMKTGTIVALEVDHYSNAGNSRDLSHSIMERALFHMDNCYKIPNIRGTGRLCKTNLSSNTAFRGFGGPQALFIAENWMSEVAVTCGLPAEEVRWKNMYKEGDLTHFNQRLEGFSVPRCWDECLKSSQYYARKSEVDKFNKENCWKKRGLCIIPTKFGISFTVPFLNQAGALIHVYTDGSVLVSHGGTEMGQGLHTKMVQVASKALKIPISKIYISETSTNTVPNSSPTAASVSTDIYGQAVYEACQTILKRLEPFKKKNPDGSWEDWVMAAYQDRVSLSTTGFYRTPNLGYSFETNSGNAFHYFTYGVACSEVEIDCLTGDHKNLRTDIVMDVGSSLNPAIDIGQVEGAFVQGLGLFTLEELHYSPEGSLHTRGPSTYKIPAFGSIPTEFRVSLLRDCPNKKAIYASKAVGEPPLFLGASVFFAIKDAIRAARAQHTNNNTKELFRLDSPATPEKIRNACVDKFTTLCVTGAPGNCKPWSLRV
# Assay: Xanthine oxidase inhibitory activity
# Type: biochemical
# Details: xanthine 200 μM added at 100 μL/well, 10 minutes at room temperature, absorbance at 290 nm
# Protocol: Xanthine Oxidase Inhibitory Activity
# (1) Preparation of Test Compounds
# Test compounds were dissolved in dimethyl sulfoxide (DMSO) (manufactured by Wako pure chemical) at 40 mM concentration and then diluted to intended concentrations with phosphate-buffered saline (PBS).
# (2) Method for Measurement
# Xanthine oxidase (from bovine milk, Sigma) was prepared with phosphate-buffered saline (PBS) at 0.02 units/mL, and then the solution was added to 96 well plates at 50 μL/well. In addition, test compounds diluted with PBS were added at 50 μL/well. Xanthine (manufactured by Wako pure chemical) at 200 μM prepared with PBS was added at 100 μL/well, and the reaction was conducted for 10 minutes at room temperature. Absorbance at 290 nm was measured by using a microplate reader SpectraMax Plus 384 (manufactured by Molecular device). The absorbance under a condition without xanthine is 0%, and control without test compounds is 100%. Fifty % inhibitory concentration of a test compounds (IC50) was calculated (Table 5). “Ex. No.” in the table indicates Example number.
row,IC50 [nM],Compound
1,13,"Cc1cc2c(s1)c(C#N)cn2-c1ccc(C(=O)O)c(O)c1 [Example 1, 4-(6-Cyano-2-methyl-thieno[3,2-b]pyrrol-4-yl)-2-hydroxybenzoic acid]"
2,10,N#Cc1cn(-c2ccc(C(=O)O)c(O)c2)c2cscc12 [Example 7]
3,13,N#Cc1cn(-c2ccc(C(=O)O)c(O)c2)c2sccc12 [Example 9]

# Further lines, the molecule ahead of its results:
row,Compound,IC50 [nM]
1,"N#Cc1cn(-c2ccc(C(=O)O)c(O)c2)c2ccsc12 [Example 5, 4-(6-Cyano-thieno[3,2-b]pyrrol-4-yl)-2-hydroxybenzoic acid]",10
2,N#Cc1cn(-c2ccc(C(=O)O)c(O)c2)c2sc(Br)cc12 [Example 8],14

# From patent US9115144B2, “Fused heterocyclic derivative and pharmaceutical use thereof” (KISSEI PHARMACEUTICAL CO., LTD., priority 2011, dated 2015)
